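Briefly, cells in 96-well plates were exposed to five compound concentrations for 48 h, and endpoints were estimated by linear interpolation. At the GI50, growth is halved.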 Active and inactive are the calls of the source. Rule as the data show it: active = GI50 up to about 1.1 µM and inactive = higher. *1 amine or outer side, *2 acyl side, *3 side chain or, on linkers, in order; H or OH if unused. Where a SMILES comes first, the peptide text is derived from it. Bridges are numbered along the chain shown (N, C = ends). Roman numbers before positions name the chains, in order. [ ]: non-standard residue; d: D form. Actinocin(9to1) = Cc1c2oc3c(C)ccc(C(=O)[*:1])c3nc-2c(C(=O)[*:2])c(N)c1=O; NMeV = CN[CH](C(=O)O)C(C)C; Sar = CNCC(=O)O

Among the test systems are 786-0; ACHN; CAKI-1; CCRF-CEM; HCT-116; HCT-15; HOP-62; K562; LOX IMVI; MOLT-4; NCI-H23; NCI-H460; OVCAR-3; OVCAR-8; RXF 393; SF-295; SN12C; SNB-19; TK-10; UACC-257.
What all share (assay): NCI anticancer screen, dose series, 48 h

For `COc1c(CC(C)O)c2c3c(CC(C)O)c(OC)c(=O)c4c(O)cc5c(c6c(cc(O)c(c1=O)c62)OCO5)c43` (stereo not given) [CERCOSPORIN], the GI50 in the experiment on 786-0 was 2.66 µM (inactive); with ACHN it was 1.63 µM (inactive); in the experiment with CAKI-1, 6.01 µM (inactive); with CCRF-CEM, 2.72 µM (inactive); with HCT-116 it was 1.39 µM (inactive); with HCT-15 it was 1.56 µM. Also, the GI50 was 1.99 µM (inactive) in the experiment with HOP-62; 2 µM (inactive) with K562; 0.711 µM (active) in the experiment on LOX IMVI; 1.75 µM (inactive) with MOLT-4; 1.4 µM (inactive) with NCI-H23; 0.45 µM (active) in the experiment on NCI-H460. Moreover, the GI50 was 1.87 µM (inactive) in the experiment on OVCAR-3; 1.74 µM (inactive) with OVCAR-8; 1.27 µM (inactive) with RXF 393; 1.91 µM (inactive) with SF-295; 1.57 µM (inactive) in the experiment with SN12C; 2.49 µM (inactive) in the experiment with SNB-19. Moreover, the GI50 in the experiment on TK-10 is 2.62 µM (inactive); in the experiment with UACC-257, 1.34 µM (inactive).
With `Cn1c(=O)c2[nH]c(/N=N/N3CCN(CCO)CC3)nc2n(C)c1=O`, the GI50 in the experiment on 786-0 was > 100 µM (inactive); with ACHN, > 100 µM (inactive); in the experiment with CAKI-1 it was > 100 µM (inactive); in the experiment on CCRF-CEM it was > 100 µM (inactive); with HCT-116 it was > 100 µM (inactive); in the experiment on HCT-15, more than 100 µM. The GI50 in the experiment with HOP-62, with K562, in the experiment with LOX IMVI, in the experiment on MOLT-4, in the experiment with NCI-H23 and with NCI-H460 was > 100 µM (inactive) in each case. The GI50 in the experiment on OVCAR-3, with OVCAR-8, with RXF 393, in the experiment on SF-295, with SN12C and in the experiment with SNB-19 was > 100 µM (inactive) each time. Further, the GI50 in the experiment on TK-10 and with UACC-257 was > 100 µM (inactive) in each case.
`CCCCCCCCCCC(C)CCCCCCC(=O)OCC(COP(=O)([O-])OCC[N+](C)(C)C)OC(=O)CCCCCCC(C)CCCCCCCCCC` (stereo not given): the GI50 in the experiment on 786-0 was > 100 µM (inactive); in the experiment with ACHN it was > 100 µM (inactive); in the experiment on CAKI-1, > 100 µM (inactive); in the experiment on CCRF-CEM, > 100 µM (inactive); with HCT-116 it was > 100 µM (inactive); with HCT-15, more than 100 µM. For the same compound, the GI50 in the experiment with HOP-62, in the experiment on K562, with LOX IMVI, in the experiment on MOLT-4, with NCI-H23 and in the experiment on NCI-H460 was > 100 µM (inactive) each time. The GI50 in the experiment with OVCAR-3, in the experiment with OVCAR-8, with RXF 393, with SF-295, with SN12C and in the experiment with SNB-19 was > 100 µM (inactive) in each case. Besides, the GI50 with TK-10 and with UACC-257 was > 100 µM (inactive) throughout.
For the compound `Cc1c2oc3c(C)ccc(C(=O)NC4C(=O)NC(C(C)O)C(=O)N5CCCC5C(=O)N(C)CC(=O)N(C)C(C(C)C)C(=O)OC4C)c3nc-2c(C(=O)NC2C(=O)NC(C(C)O)C(=O)N3CCCC3C(=O)N(C)CC(=O)N(C)C(C(C)C)C(=O)OC2C)c(N)c1=O` (stereo not given) (I: TTP[Sar][NMeV] / II: TTP[Sar][NMeV]; ester I:1-I:C, II:1-II:C; linker I:N-II:N via Actinocin(9to1); configuration not given here), the GI50 with 786-0 was 0.136 µM (active); with ACHN, 0.427 µM (active); with CAKI-1, 4.07 µM (inactive); in the experiment on CCRF-CEM, 0.119 µM (active); with HCT-116 it was 0.0456 µM (active); in the experiment with HCT-15, 7.48 µM. Moreover, the GI50 was 0.498 µM (active) in the experiment with HOP-62; 0.0448 µM (active) in the experiment on K562; 0.0493 µM (active) with LOX IMVI; 0.0527 µM (active) with MOLT-4; 0.274 µM (active) in the experiment on NCI-H23; 0.0818 µM (active) in the experiment on NCI-H460. Besides, the GI50 in the experiment on OVCAR-3 is 0.28 µM (active); with OVCAR-8, 0.195 µM (active); with RXF 393, 0.0946 µM (active); with SF-295, 0.453 µM (active); with SN12C, 0.207 µM (active); in the experiment on SNB-19 it was 0.147 µM (active). For the same compound, the GI50 in the experiment with TK-10 is 0.643 µM (active); in the experiment on UACC-257, 0.244 µM (active).
For `COc1ccc2c(c1)[n+]([O-])c(C(C)=O)c(C)[n+]2[O-]`, the GI50 in the experiment on 786-0 is > 100 µM (inactive); in the experiment on ACHN, > 100 µM (inactive); with CAKI-1 it was > 100 µM (inactive); in the experiment on CCRF-CEM it was > 10 µM (inactive); in the experiment on HCT-116 it was > 100 µM (inactive); in the experiment on HCT-15, more than 100 µM. In addition, the GI50 with HOP-62, in the experiment on K562, with LOX IMVI, with MOLT-4, in the experiment with NCI-H23 and with NCI-H460 was > 100 µM (inactive) each time. For the same compound, the GI50 in the experiment with OVCAR-3, in the experiment on OVCAR-8, in the experiment with RXF 393, in the experiment on SF-295, in the experiment with SN12C and with SNB-19 was > 100 µM (inactive) each time. Also, the GI50 in the experiment with TK-10 and in the experiment on UACC-257 was > 100 µM (inactive) each time.
Regarding `NN=C(S)Nc1cccc(Cl)c1`, the GI50 in the experiment on 786-0 is > 100 µM (inactive); with ACHN, > 100 µM (inactive); with CAKI-1, > 100 µM (inactive); in the experiment on CCRF-CEM it was 25.8 µM (inactive); in the experiment on HCT-116, 36.3 µM (inactive); with HCT-15, 48.2 µM. The GI50 is > 100 µM (inactive) in the experiment with HOP-62; 36.6 µM (inactive) in the experiment with K562; > 100 µM (inactive) in the experiment with LOX IMVI; 35.4 µM (inactive) in the experiment on MOLT-4; > 100 µM (inactive) in the experiment with NCI-H23; 64.1 µM (inactive) in the experiment with NCI-H460. Moreover, the GI50 was 29.3 µM (inactive) in the experiment with OVCAR-3; 81.5 µM (inactive) in the experiment on OVCAR-8; > 100 µM (inactive) in the experiment on RXF 393; 69.2 µM (inactive) with SF-295; 94.4 µM (inactive) in the experiment with SN12C; > 100 µM (inactive) with SNB-19. Further, the GI50 in the experiment with TK-10 and with UACC-257 was > 100 µM (inactive) in each case.
On to `O=C1c2ccccc2C(=O)c2[nH]c(=O)c(/C=N/Nc3ccc([N+](=O)[O-])cc3)nc21`, for which the GI50 is 15.9 µM (inactive) with 786-0; 13.2 µM (inactive) with ACHN; 17.3 µM (inactive) in the experiment on CAKI-1; > 35.5 µM (inactive) in the experiment on CCRF-CEM; 19.8 µM (inactive) with HCT-116; 3.67 µM in the experiment on HCT-15. Further, the GI50 in the experiment on HOP-62 was 2.28 µM (inactive); with K562, > 43.6 µM (inactive); in the experiment with LOX IMVI it was 3.56 µM (inactive); in the experiment on MOLT-4 it was 22.9 µM (inactive); in the experiment with NCI-H23, 1.63 µM (inactive); with NCI-H460, 2.06 µM (inactive). The GI50 with OVCAR-3 was 2.92 µM (inactive); in the experiment on OVCAR-8 it was 15.8 µM (inactive); in the experiment with RXF 393, 6.04 µM (inactive); in the experiment with SF-295, 3.32 µM (inactive); in the experiment on SN12C it was 11.9 µM (inactive); in the experiment with SNB-19, 15.9 µM (inactive). For the same compound, the values for the GI50 with TK-10 and in the experiment on UACC-257 were 16.1 µM (inactive) and 2.15 µM (inactive), respectively.
As for `O=C(CCCN1CCC(C(O)c2ccc(F)cc2)CC1)c1ccc(F)cc1` (stereo not given), the GI50 in the experiment with 786-0 is 44.9 µM (inactive); with ACHN, 50.6 µM (inactive); in the experiment with CAKI-1 it was 53.7 µM (inactive); with CCRF-CEM, 76.2 µM (inactive); in the experiment on HCT-116 it was 57 µM (inactive); in the experiment with HCT-15 it was 62.2 µM. In addition, the GI50 is 62.8 µM (inactive) in the experiment on HOP-62; 39.7 µM (inactive) in the experiment with K562; 50 µM (inactive) in the experiment on LOX IMVI; 54.3 µM (inactive) in the experiment on MOLT-4; 66.5 µM (inactive) in the experiment with NCI-H23; 57.8 µM (inactive) in the experiment with NCI-H460. The GI50 in the experiment on OVCAR-3 is 57 µM (inactive); in the experiment with OVCAR-8, 64.7 µM (inactive); with RXF 393, 41.1 µM (inactive); in the experiment on SF-295, 63.5 µM (inactive); in the experiment on SN12C, 71.9 µM (inactive); in the experiment with SNB-19 it was 60.7 µM (inactive). Besides, the figures for the GI50 in the experiment with TK-10 and in the experiment with UACC-257 were 41.4 µM (inactive) and 60.7 µM (inactive), respectively.
Turning to `COc1ccc2nc3cc(Cl)ccc3c(NCCCCCC(=O)NC(COc3ccc4ccc5cccnc5c4n3)COc3ccc4ccc5cccnc5c4n3)c2c1`, the GI50 in the experiment on 786-0 is 15.4 µM (inactive); in the experiment with ACHN, 15.5 µM (inactive); in the experiment on CAKI-1, 25.3 µM (inactive); in the experiment on CCRF-CEM, 2.28 µM (inactive); in the experiment on HCT-116, 8.24 µM (inactive); with HCT-15, 35.3 µM. Also, the GI50 was > 100 µM (inactive) in the experiment with HOP-62; 13.5 µM (inactive) in the experiment with K562; 21.4 µM (inactive) with LOX IMVI; 0.527 µM (active) in the experiment with MOLT-4; 21.4 µM (inactive) in the experiment on NCI-H23; 2.85 µM (inactive) with NCI-H460. Further, the GI50 is 28.5 µM (inactive) in the experiment on OVCAR-3; 41.2 µM (inactive) in the experiment with OVCAR-8; 19.8 µM (inactive) with RXF 393; 29.8 µM (inactive) in the experiment with SF-295; 17.8 µM (inactive) in the experiment with SN12C; 45.5 µM (inactive) in the experiment on SNB-19. The GI50 in the experiment on TK-10 is 18.1 µM (inactive); with UACC-257 it was 21.7 µM (inactive).
On to `O=Cc1cc(O)ccc1Br`, for which the GI50 with 786-0 is 22.6 µM (inactive); in the experiment on ACHN, 19.8 µM (inactive); in the experiment on CAKI-1, 20 µM (inactive); in the experiment on CCRF-CEM, 3.08 µM (inactive); with HCT-116 it was 3.31 µM (inactive); with HCT-15, 3.15 µM. The GI50 in the experiment with HOP-62 was 9.71 µM (inactive); in the experiment on K562 it was 2.86 µM (inactive); in the experiment on LOX IMVI it was 5.46 µM (inactive); with MOLT-4 it was 4.15 µM (inactive); in the experiment on NCI-H23, 21.7 µM (inactive); in the experiment with NCI-H460 it was 19.7 µM (inactive). The GI50 in the experiment with OVCAR-3 is 6.3 µM (inactive); in the experiment on OVCAR-8, 5.05 µM (inactive); in the experiment with RXF 393 it was 27.4 µM (inactive); with SF-295 it was 7 µM (inactive); with SN12C it was 19.8 µM (inactive); with SNB-19, 12.5 µM (inactive). For the same compound, the GI50 in the experiment on TK-10 is 11.3 µM (inactive); in the experiment with UACC-257, 41.5 µM (inactive).
